According to US11077090B2, “Compounds and compositions and uses thereof” (Sunovion Pharmaceuticals Inc., priority 2016, dated 2021):

Test system: compound-treated mice
Assay: Neuropharmacological assay (SmartCube): behavioral activity signature and minimal effective dose
Format: in vivo
Settings: for minimal effective dose: Mus musculus, ip, MED = dose having 50% or more total activity, read-out: Potency: minimal effective dose (MED), binned; for AD: ADHD (probability of activity signature) / AG: analgesic (probability of activity signature) / AX: anxiolytic (probability of activity signature) / CE: cognitive enhancer (probability of activity signature) / DP: anti-depressant (probability of activity signature) / MS: mood stabilizer (probability of activity signature) / PS: anti-psychotic (probability of activity signature) / SD: sedative hypnotic (probability of activity signature) / UN: uncharacterized CNS activity (probability of activity signature): i.p. 15 min before test, most efficacious dose(s)
In short: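 Mice dosed i.p. 15 min before test, compound in N-methyl-2-pyrrolidone/PEG/propylene glycol, 3 doses; video-captured behavior matched to reference-drug signatures, giving per-class probabilities at most efficacious dose. MED from doses typically 0.3–30 mpk, defined as lowest dose with ≥50% total activity.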

## Cc1ccc(Cl)c2c1[C@H](N)COC2 (single isomer, unassigned) [Example 175]
  minimal effective dose: < 3 mg/kg
  AD: ADHD (probability of activity signature): + (LOQ ≤ + <5%)
  AG: analgesic (probability of activity signature): ++ (5% ≤ ++ <25%)
  AX: anxiolytic (probability of activity signature): ++ (5% ≤ ++ <25%)
  CE: cognitive enhancer (probability of activity signature): ++ (5% ≤ ++ <25%)
  DP: anti-depressant (probability of activity signature): ++ (5% ≤ ++ <25%)
  MS: mood stabilizer (probability of activity signature): + (LOQ ≤ + <5%)
  PS: anti-psychotic (probability of activity signature): ++ (5% ≤ ++ <25%)
  SD: sedative hypnotic (probability of activity signature): + (LOQ ≤ + <5%)
  UN: uncharacterized CNS activity (probability of activity signature): ++++ (50% ≤ ++++)

## Cc1ccc(Cl)c2c1[C@@H](N)COC2 (single isomer, unassigned) [Example 176]
  minimal effective dose: 3 to 10 mg/kg
  AD: ADHD (probability of activity signature): + (LOQ ≤ + <5%)
  AG: analgesic (probability of activity signature): + (LOQ ≤ + <5%)
  AX: anxiolytic (probability of activity signature): ++ (5% ≤ ++ <25%)
  CE: cognitive enhancer (probability of activity signature): ++ (5% ≤ ++ <25%)
  DP: anti-depressant (probability of activity signature): ++ (5% ≤ ++ <25%)
  MS: mood stabilizer (probability of activity signature): + (LOQ ≤ + <5%)
  PS: anti-psychotic (probability of activity signature): ++ (5% ≤ ++ <25%)
  SD: sedative hypnotic (probability of activity signature): + (LOQ ≤ + <5%)
  UN: uncharacterized CNS activity (probability of activity signature): ++++ (50% ≤ ++++)

## CC[C@H]1OCc2ccc(C)cc2[C@@H]1N (single isomer, unassigned) [Example 177]
  minimal effective dose: < 3 mg/kg
  AD: ADHD (probability of activity signature): + (LOQ ≤ + <5%)
  AG: analgesic (probability of activity signature): ++ (5% ≤ ++ <25%)
  AX: anxiolytic (probability of activity signature): ++++ (50% ≤ ++++)
  CE: cognitive enhancer (probability of activity signature): ++ (5% ≤ ++ <25%)
  DP: anti-depressant (probability of activity signature): + (LOQ ≤ + <5%)
  MS: mood stabilizer (probability of activity signature): + (LOQ ≤ + <5%)
  PS: anti-psychotic (probability of activity signature): ++ (5% ≤ ++ <25%)
  SD: sedative hypnotic (probability of activity signature): + (LOQ ≤ + <5%)
  UN: uncharacterized CNS activity (probability of activity signature): ++++ (50% ≤ ++++)

## CC[C@@H]1OCc2ccc(C)cc2[C@H]1N (single isomer, unassigned) [Example 178]
  minimal effective dose: 10 to 30 mg/kg
  AD: ADHD (probability of activity signature): + (LOQ ≤ + <5%)
  AG: analgesic (probability of activity signature): ++ (5% ≤ ++ <25%)
  AX: anxiolytic (probability of activity signature): ++ (5% ≤ ++ <25%)
  CE: cognitive enhancer (probability of activity signature): + (LOQ ≤ + <5%)
  DP: anti-depressant (probability of activity signature): ++ (5% ≤ ++ <25%)
  MS: mood stabilizer (probability of activity signature): + (LOQ ≤ + <5%)
  PS: anti-psychotic (probability of activity signature): ++ (5% ≤ ++ <25%)
  SD: sedative hypnotic (probability of activity signature): ++ (5% ≤ ++ <25%)
  UN: uncharacterized CNS activity (probability of activity signature): +++ (25% ≤ +++ <50%)

## CC[C@@H]1OCc2ccc(C)cc2[C@@H]1N (single isomer, unassigned) [Example 179]
  minimal effective dose: < 3 mg/kg
  AD: ADHD (probability of activity signature): + (LOQ ≤ + <5%)
  AG: analgesic (probability of activity signature): + (LOQ ≤ + <5%)
  AX: anxiolytic (probability of activity signature): ++ (5% ≤ ++ <25%)
  CE: cognitive enhancer (probability of activity signature): ++ (5% ≤ ++ <25%)
  DP: anti-depressant (probability of activity signature): +++ (25% ≤ +++ <50%)
  MS: mood stabilizer (probability of activity signature): + (LOQ ≤ + <5%)
  PS: anti-psychotic (probability of activity signature): ++ (5% ≤ ++ <25%)
  SD: sedative hypnotic (probability of activity signature): + (LOQ ≤ + <5%)
  UN: uncharacterized CNS activity (probability of activity signature): ++++ (50% ≤ ++++)

## CC[C@H]1OCc2ccc(C)cc2[C@H]1N (single isomer, unassigned) [Example 180]
  minimal effective dose: 3 to 10 mg/kg
  AD: ADHD (probability of activity signature): + (LOQ ≤ + <5%)
  AG: analgesic (probability of activity signature): ++ (5% ≤ ++ <25%)
  AX: anxiolytic (probability of activity signature): ++ (5% ≤ ++ <25%)
  CE: cognitive enhancer (probability of activity signature): ++ (5% ≤ ++ <25%)
  DP: anti-depressant (probability of activity signature): ++ (5% ≤ ++ <25%)
  MS: mood stabilizer (probability of activity signature): + (LOQ ≤ + <5%)
  PS: anti-psychotic (probability of activity signature): ++ (5% ≤ ++ <25%)
  SD: sedative hypnotic (probability of activity signature): + (LOQ ≤ + <5%)
  UN: uncharacterized CNS activity (probability of activity signature): ++++ (50% ≤ ++++)

## CC[C@@H]1OCc2ccccc2[C@@H]1N (single isomer, unassigned) [Example 191]
  minimal effective dose: < 3 mg/kg
  AD: ADHD (probability of activity signature): + (LOQ ≤ + <5%)
  AG: analgesic (probability of activity signature): ++ (5% ≤ ++ <25%)
  AX: anxiolytic (probability of activity signature): ++ (5% ≤ ++ <25%)
  CE: cognitive enhancer (probability of activity signature): ++ (5% ≤ ++ <25%)
  DP: anti-depressant (probability of activity signature): ++ (5% ≤ ++ <25%)
  MS: mood stabilizer (probability of activity signature): + (LOQ ≤ + <5%)
  PS: anti-psychotic (probability of activity signature): ++ (5% ≤ ++ <25%)
  SD: sedative hypnotic (probability of activity signature): ++ (5% ≤ ++ <25%)
  UN: uncharacterized CNS activity (probability of activity signature): ++++ (50% ≤ ++++)

## CC[C@H]1OCc2ccccc2[C@H]1N (single isomer, unassigned) [Example 192]
  minimal effective dose: < 3 mg/kg
  AD: ADHD (probability of activity signature): + (LOQ ≤ + <5%)
  AG: analgesic (probability of activity signature): + (LOQ ≤ + <5%)
  AX: anxiolytic (probability of activity signature): ++ (5% ≤ ++ <25%)
  CE: cognitive enhancer (probability of activity signature): ++ (5% ≤ ++ <25%)
  DP: anti-depressant (probability of activity signature): + (LOQ ≤ + <5%)
  MS: mood stabilizer (probability of activity signature): + (LOQ ≤ + <5%)
  PS: anti-psychotic (probability of activity signature): ++ (5% ≤ ++ <25%)
  SD: sedative hypnotic (probability of activity signature): ++ (5% ≤ ++ <25%)
  UN: uncharacterized CNS activity (probability of activity signature): ++++ (50% ≤ ++++)

## CC[C@H]1OCc2ccccc2[C@@H]1N (single isomer, unassigned) [Example 193]
  minimal effective dose: 3 to 10 mg/kg
  AD: ADHD (probability of activity signature): + (LOQ ≤ + <5%)
  AG: analgesic (probability of activity signature): ++ (5% ≤ ++ <25%)
  AX: anxiolytic (probability of activity signature): ++ (5% ≤ ++ <25%)
  CE: cognitive enhancer (probability of activity signature): ++ (5% ≤ ++ <25%)
  DP: anti-depressant (probability of activity signature): + (LOQ ≤ + <5%)
  MS: mood stabilizer (probability of activity signature): + (LOQ ≤ + <5%)
  PS: anti-psychotic (probability of activity signature): ++ (5% ≤ ++ <25%)
  SD: sedative hypnotic (probability of activity signature): ++ (5% ≤ ++ <25%)
  UN: uncharacterized CNS activity (probability of activity signature): ++++ (50% ≤ ++++)

## CC[C@@H]1OCc2ccccc2[C@@H]1N.Cl (single isomer, unassigned) [Example 198]
  minimal effective dose: < 3 mg/kg
  AD: ADHD (probability of activity signature): + (LOQ ≤ + <5%)
  AG: analgesic (probability of activity signature): + (LOQ ≤ + <5%)
  AX: anxiolytic (probability of activity signature): ++ (5% ≤ ++ <25%)
  CE: cognitive enhancer (probability of activity signature): ++ (5% ≤ ++ <25%)
  DP: anti-depressant (probability of activity signature): ++ (5% ≤ ++ <25%)
  MS: mood stabilizer (probability of activity signature): + (LOQ ≤ + <5%)
  PS: anti-psychotic (probability of activity signature): +++ (25% ≤ +++ <50%)
  SD: sedative hypnotic (probability of activity signature): + (LOQ ≤ + <5%)
  UN: uncharacterized CNS activity (probability of activity signature): +++ (25% ≤ +++ <50%)

## CC[C@H]1OCc2ccccc2[C@@H]1N.Cl (single isomer, unassigned) [Example 199]
  minimal effective dose: < 3 mg/kg
  AD: ADHD (probability of activity signature): + (LOQ ≤ + <5%)
  AG: analgesic (probability of activity signature): ++ (5% ≤ ++ <25%)
  AX: anxiolytic (probability of activity signature): ++++ (50% ≤ ++++)
  CE: cognitive enhancer (probability of activity signature): ++ (5% ≤ ++ <25%)
  DP: anti-depressant (probability of activity signature): + (LOQ ≤ + <5%)
  MS: mood stabilizer (probability of activity signature): + (LOQ ≤ + <5%)
  PS: anti-psychotic (probability of activity signature): ++ (5% ≤ ++ <25%)
  SD: sedative hypnotic (probability of activity signature): ++ (5% ≤ ++ <25%)
  UN: uncharacterized CNS activity (probability of activity signature): ++++ (50% ≤ ++++)
